Source: US20020062491A1, “Method of producing primary hepatocellular carcinoma-bearing model animals” (WELFIDE CORPORATION, priority 2000, published 2002)

Key:
Format in all cases: in vivo, male Fischer 344 rats
GST-P-positive foci = experiment: Analysis of GST-P-stained liver specimens (GST-P-positive foci); conditions: for Focal area (GST-P positive) / Number of foci (GST-P positive) / Number of foci, focal size 0-0.03 mm^2 / Number of foci, focal size 0.03-0.1 mm^2 / Number of foci, focal size 0.1-0.3 mm^2 / Number of foci, focal size 0.3-1.0 mm^2 / Number of foci, focal size 1.0-3.0 mm^2 / Number of foci, focal size 3.0-10.0 mm^2 / Number of foci, focal size 10.0-30.0 mm^2 / Number of foci, focal size 30.0-100.0 mm^2 / Number of foci, focal size 100.0- mm^2: eight weeks; for GST-P-positive foci, comparison between groups in words: group 4 vs group 2, groups 5, 6 vs group 3, groups 7, 8, 9 vs group 4
Protocol: (§1) To the animals in group 1, only a CRF-1 basal diet (Oriental Yest Co., Ltd., Tokyo) was fed. To the ones in group 2, only a CDAA (Dyets Inc., USA) diet was fed. The CDAA diet, whose composition is shown in Table 1, was fed from the day before the 1st administration day of DEN (day 1) and was stored under refrigeration until use. To the ones in group 3, a CRF-1 basal diet was fed and DEN was treated. The dose of DEN was set at 95 mg/kg body weight (2 ml/kg body weight) and rats were intraperitoneally treated once a week for the first three weeks (day 1, 8 and 15). To the ones in group 4, a CDAA diet was fed and DEN was treated. To the ones in group 5, a CRF-1 basal diet was fed and given DEN and PH. In the partial hepatectomy (PH), the left lobe and the right and left sublobes of the median lobe of the liver were excised. PH was carried out on the day before the first administration of PB (day 28). To the ones in group 6, a CRF-1 basal diet was fed and given DEN, PH, and PB. The dose of PB was set at 60 mg/kg body weight (2 ml/kg body weight) and rats were intraperitoneally treated three times a week from week 5 (day 29, 32, 34, 36, 39, 41, 43, 46, 48, 50, 53, and 55). To the ones in group 7, a CDAA diet was fed and given DEN and PH. To the ones in group 8, a CDAA diet was fed and given DEN and PB. To the ones in group 9, a CDAA diet was fed and given DEN, PH, and PB. This experiment was started on Apr. 10, 1997.
Immunohistochemical staining using polyclonal antibodies against GST-P was applied to facilitate quantitative evaluation of altered hepatocellular foci. Paraffin sections were stained immunohistochemically using the labeled streptavidin-biotin-peroxidase complex (LSAB) method for binding of rabbit anti-rat GST-Yp polyclonal antibody (1:1000; BIO PREP, IRELAND). The analytical procedure for the GST-P-stained specimens was as follows. Photographs (x10) of GST-P-stained specimens of whole cross-section of liver were taken. Photographs were jointed to construct complete cross-sectional image. GST-P-positive foci (hereinafter foci) were painted out with felt pen. Cross-sectional images were processed by Image Scanner (GT-6500, SEIKO EPSONCO., Ltd., Nagano) (using EpScan Mac). The area of each focus and total cross-sectional area of each image were measured using Adobe Photoshop and NIH image. Number of foci per unit area and focal area per unit area were calculated from data on number of foci, mean focal area, total focal area, and total organ area.
All examination data were statistically evaluated by F-t test. First, equal dispersion was tested by F test (significance level 5%). Student-t test was carried out where population variance was judged to be equal, and Welch-t test where it was judged different. Bilateral significance level was set at 5% and 1%.

[1] = Survival, final body weight and liver weight, 8-week study (Experimental Example 1); conditions: mean ± spread; DEN 95 mg/kg i.p. day 1, 8, 15; PB 60 mg/kg i.p. three times a week from week 5; PH day 28
Protocol: The eighty six male 4-week-old Fischer 344 rats used in this study were obtained from Charles River Japan, Inc. (Kanagawa). Grouping of the rats was performed according to the latest body weight. The animals were housed, two/cage in a climate-controlled animal room at temperature of 24±3° C., relative humidity of 55±15%, and ventilation rate of 10-20 times/h with 12-hour illumination, and allowed free access to the prescribed diets in every group and tap water.
To the animals in group 1, only a CRF-1 basal diet (Oriental Yest Co., Ltd., Tokyo) was fed. To the ones in group 2, only a CDAA (Dyets Inc., USA) diet was fed. The CDAA diet, whose composition is shown in Table 1, was fed from the day before the 1st administration day of DEN (day 1) and was stored under refrigeration until use. To the ones in group 3, a CRF-1 basal diet was fed and DEN was treated. The dose of DEN was set at 95 mg/kg body weight (2 ml/kg body weight) and rats were intraperitoneally treated once a week for the first three weeks (day 1, 8 and 15). To the ones in group 4, a CDAA diet was fed and DEN was treated. To the ones in group 5, a CRF-1 basal diet was fed and given DEN and PH. In the partial hepatectomy (PH), the left lobe and the right and left sublobes of the median lobe of the liver were excised. […]
All examination data were statistically evaluated by F-t test. […]

liver = experiment: Autopsy and histopathological examination of liver (H.E.-stained specimens); conditions: eight weeks; for Histopathological findings of H.E.-stained liver, in words: comparator group as stated in the value (groups 2 and 3: findings not observed in group 1 CRF-1)
Protocol: as §1
At eight weeks (day 60-63), autopsy was performed after the animals were sacrificed by exsanguination under ether anesthesia. After the liver had been excised and fixed in 10% neutral buffered formalin fixative, paraffin sections and H.E.-stained specimens were prepared and microscopic examination was carried out.

SMILES	Focal area (GST-P positive) (GST-P-positive foci)	Number of foci (GST-P positive) (GST-P-positive foci)	Number of foci, focal size 0-0.03 mm^2 (GST-P-positive foci)	Number of foci, focal size 0.03-0.1 mm^2 (GST-P-positive foci)	Number of foci, focal size 0.1-0.3 mm^2 (GST-P-positive foci)	Number of foci, focal size 0.3-1.0 mm^2 (GST-P-positive foci)	Number of foci, focal size 1.0-3.0 mm^2 (GST-P-positive foci)	Number of foci, focal size 3.0-10.0 mm^2 (GST-P-positive foci)	Number of foci, focal size 10.0-30.0 mm^2 (GST-P-positive foci)	Number of foci, focal size 30.0-100.0 mm^2 (GST-P-positive foci)	Number of foci, focal size 100.0- mm^2 (GST-P-positive foci)	GST-P-positive foci, comparison between groups in words (GST-P-positive foci)	Body weight (day 57) [1]	Altered hepatocellular foci, number of animals by grade (±, +, 2+, 3+) (liver; H.E.-stained liver)	Vacuolar degeneration, number of animals by grade (±, +, 2+, 3+) (liver; H.E.-stained liver)	Histopathological findings of H.E.-stained liver, in words (liver)
CCN(CC)N=O [CRF-1+DEN+PH, Diethylnitrosoamine]	0.015 ± 0.006 CT mm^2/mm^2Liver	0.467 ± 0.162 . CT /mm^2Liver	0.335 ± 0.124 . CT /mm^2Liver	0.105 ± 0.030 CT /mm^2Liver	0.023 ± 0.014 . CT /mm^2Liver	0.003 ± 0.002 CT /mm^2Liver	0.000 ± 0.000 . CT /mm^2Liver	0.000 ± 0.000 . CT /mm^2Liver	0.000 ± 0.000 . CT /mm^2Liver	0.000 ± 0.000 . CT /mm^2Liver	0.000 ± 0.000 . CT /mm^2Liver	focal areas were elevated	263.85 ± 3.96 ** * g	4	4	altered hepatocellular foci were more marked than in group 3 (CRF-1+DEN)
CCN(CC)N=O [CRF-1+DEN, Diethylnitrosoamine]	0.006 ± 0.002 CT mm^2/mm^2Liver	0.350 ± 0.083 CT /mm^2Liver	0.312 ± 0.070 CT /mm^2Liver	0.035 ± 0.021 CT /mm^2Liver	0.003 ± 0.005 CT /mm^2Liver	0.000 ± 0.000 CT /mm^2Liver	0.000 ± 0.000 CT /mm^2Liver	0.000 ± 0.000 CT /mm^2Liver	0.000 ± 0.000 CT /mm^2Liver	0.000 ± 0.000 CT /mm^2Liver	0.000 ± 0.000 CT /mm^2Liver	foci were observed	257.52 ± 5.11 CT g			slight vacuolar degeneration and altered hepatocellular foci
